Assay [1] deals with tumor cell strains (colon cancer, pancreatic cancer, esophageal squamous carcinoma, gastric cancer, glioma). Put plainly: Summary of in-vitro proliferation inhibition on tumor cell strains (Examples 19-21). Format: cell-based, human. As for the experimental part:
(§1) A part of the compounds prepared in the examples of the present disclosure were subjected to a tumor cell proliferation inhibition test by using a CCK-8 method. A cell line HCT116 (human colon carcinoma cells) and SW1990 (human pancreatic carcinoma cells) were purchased from Shanghai Meixuan Technology Co., Ltd. Samples (a part of the compounds prepared in the examples) were dissolved in DMSO (Merck), prepared into a concentration of 10 mM, and finally triply diluted in DMEM or McCoy's 5A 1640 medium to 8 concentration gradients. A cell culture solution was collected when a cell culture met a test requirement, 10 μL of the cell culture solution was uniformly coated on a cell counting plate, cells were counted for 3 times under a microscope, and a cell density was calculated by taking an average value; and a 96-well plate (Corning, #3599) was taken, 200 μL of the cell culture solution was added into each well for cell inoculation at a cell concentration of 6×10^3 cells per well, and the inoculated 96-well plate was incubated in a cell incubator containing 5% CO2 at 37° C. for 24 h. An old culture medium was removed by suction, 200 μL of the triply diluted sample DMEM or McCoy's 5A 1640 medium at an initial concentration of 10 μmol/L was added to each well, the DMSO content was controlled to be 1%, three duplicate wells were set, PBS was used as a blank control, and the plate was incubated in the incubator for 72 h. The original DMEM or McCoy's 5A 1640 medium in the 96-well plate and a PBS buffer in a final row were sucked out, a prepared CCK-8 solution (90% DMEM or McCoy's 5A 1640 medium+10% CCK-8) was added, the mixture was incubated in an incubator, and an absorbance was read by using a Biotek microplate reader. Cell growth inhibition rate IC %=(blank control well OD value−administration well OD value)/blank control well OD value×100%.
(§2) In-vitro activity test: 100 μL of a cell suspension at a concentration of 4-5×10^4/mL was added to each well of a 96-well plate, and placed in a 5% CO2 incubator at 37° C. After 24 h, a sample solution was added at 10 μL/well, double duplicate wells were set, and a reaction was performed at 37° C. with 5% CO2 for 72 h. 20 μL of 5 mg/ml of an MTT solution was added into each well and reacted for 4 h, a dissolving solution was added at 100 μL/well, the mixture was placed in an incubator, and after dissolution, an OD value at 570 nm was measured with a full-wavelength multifunctional microplate reader. An inhibition rate (IR) and a median inhibitory concentration (IC50) were calculated by using an Excel software.
A part of the compounds prepared in the examples of the present disclosure were subjected to a tumor cell proliferation inhibition test by using a CCK-8 method. Cell lines HCT116 (human colon cancer cells), MGC803 (human gastric cancer cells), and MIA PACA-2 (human pancreatic cancer cells) were purchased from Shanghai Meixuan Technology Co., Ltd. Samples (a part of the compounds prepared in the examples) were dissolved in DMSO (Merck), prepared into a concentration of 10 mM, and finally triply diluted in DMEM or McCoy's 5A 1640 medium to 8 concentration gradients. A cell culture solution was collected when a cell culture met a test requirement, 10 μL of the cell culture solution was uniformly coated on a cell counting plate, cells were counted for 3 times under a microscope, and a cell density was calculated by taking an average value; and a 96-well plate (Corning, #3599) was taken, 200 μL of the cell culture solution was added into each well for cell inoculation at a cell concentration of 6×10^3 cells per well, and the inoculated 96-well plate was incubated in a cell incubator containing 5% CO2 at 37° C. for 24 h. […]

Another assay concerns the target hERG potassium channel (Homo sapiens, UniProt Q12809). Put plainly: cell-based.
Assay [2] has as its system KYSE-150 (human esophageal squamous carcinoma cells). Format: cell-based. Conditions: 72 h.
Text: A part of the compounds of the examples of the present disclosure were subjected to a tumor cell proliferation inhibition test by using an MTT method (e.g. Pharmacological Research Method of New Drug, 2007: 242-243, edited by Lu Qiujun).
A cell strain was selected from KYSE-150 (human esophageal squamous carcinoma cells), MGC803 (human gastric carcinoma cells), and SHG44 (human glioma cells), and frozen and passaged by a pharmacological laboratory of Shanghai Institute of Pharmaceutical Industry. A culture solution was DMEM+10% FBS+double antibody.
as §2
The inhibition rate (IR %) of the drug on cell growth was calculated according to the following equation: […]

The test system of assay [3] is MIA PACA-2 (human pancreatic cancer cells). Put plainly: Tumor cell proliferation inhibition test, CCK-8 method (Example 21). The assay is classed as cell-based. Conditions: Homo sapiens, MIA PaCa-2; CCK-8, 72 h, Table 3; read-out: IC50 MIA PACA-2. The procedure: as §1, with “method. Cell lines” for “method. A cell line”, “colon cancer cells), MGC803 (human gastric cancer cells),” for “colon carcinoma cells)”, “and MIA PACA-2” for “and SW1990”, “pancreatic cancer” for “pancreatic carcinoma”
In general terms: Tetrazolium assays rely on reduction of a dye to a coloured formazan, in cell work by metabolically active cells.

Assay [4] has as its system MGC803 (human gastric cancer cells). The description is as above. Format: cell-based. Conditions: Homo sapiens, MGC-803; CCK-8, 72 h, Table 3; read-out: IC50 MGC803. The procedure: as §1, with “method. Cell lines” for “method. A cell line”, “colon cancer cells), MGC803 (human gastric cancer cells),” for “colon carcinoma cells)”, “and MIA PACA-2” for “and SW1990”, “pancreatic cancer” for “pancreatic carcinoma”

Assay [5] has as its system HCT116 (human colon cancer cells). The assay is described as above. Format: cell-based. Conditions: Homo sapiens, HCT-116; CCK-8, 72 h, Table 3; read-out: IC50 HCT116. The procedure:
as §1, with “method. Cell lines” for “method. A cell line”, “colon cancer cells), MGC803 (human gastric cancer cells),” for “colon carcinoma cells)”, “and MIA PACA-2” for “and SW1990”, “pancreatic cancer” for “pancreatic carcinoma”

Where only a bound is given, the exact number is not on record here.

The term IC50 denotes the concentration at which inhibition is half-maximal.

hERG potassium channel, sequence (Q12809 whole entry): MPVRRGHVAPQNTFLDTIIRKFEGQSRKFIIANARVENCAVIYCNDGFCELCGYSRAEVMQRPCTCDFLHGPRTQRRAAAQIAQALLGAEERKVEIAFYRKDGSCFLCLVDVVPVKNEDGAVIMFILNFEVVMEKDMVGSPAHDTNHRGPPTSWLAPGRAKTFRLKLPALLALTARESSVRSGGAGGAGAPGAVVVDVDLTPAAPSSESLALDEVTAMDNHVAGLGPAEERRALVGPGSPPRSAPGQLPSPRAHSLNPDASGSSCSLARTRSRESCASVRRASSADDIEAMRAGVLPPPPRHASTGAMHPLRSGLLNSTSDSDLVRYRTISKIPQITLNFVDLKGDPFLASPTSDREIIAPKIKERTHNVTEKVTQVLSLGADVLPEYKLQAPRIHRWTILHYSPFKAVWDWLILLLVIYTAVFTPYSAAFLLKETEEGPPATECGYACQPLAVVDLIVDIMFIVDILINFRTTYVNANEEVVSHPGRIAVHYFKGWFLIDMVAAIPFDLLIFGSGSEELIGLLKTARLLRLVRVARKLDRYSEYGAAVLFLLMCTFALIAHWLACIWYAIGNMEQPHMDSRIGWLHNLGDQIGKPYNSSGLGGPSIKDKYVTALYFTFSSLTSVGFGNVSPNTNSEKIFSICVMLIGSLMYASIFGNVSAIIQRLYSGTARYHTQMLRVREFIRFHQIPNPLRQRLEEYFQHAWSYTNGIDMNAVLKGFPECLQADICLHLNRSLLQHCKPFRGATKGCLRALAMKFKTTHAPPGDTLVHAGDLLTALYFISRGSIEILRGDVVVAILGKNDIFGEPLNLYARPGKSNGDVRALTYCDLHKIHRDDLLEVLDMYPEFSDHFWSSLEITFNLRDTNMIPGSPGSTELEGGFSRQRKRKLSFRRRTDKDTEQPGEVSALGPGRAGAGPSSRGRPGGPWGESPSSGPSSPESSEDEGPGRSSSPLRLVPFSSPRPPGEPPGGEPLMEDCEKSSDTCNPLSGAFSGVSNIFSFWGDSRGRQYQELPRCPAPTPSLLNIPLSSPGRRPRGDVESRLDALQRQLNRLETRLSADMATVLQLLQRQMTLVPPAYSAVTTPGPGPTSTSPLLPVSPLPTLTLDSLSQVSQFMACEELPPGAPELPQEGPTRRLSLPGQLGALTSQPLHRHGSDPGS
Method for hERG potassium channel: CHO-hERG cells were cultured in a 175-cm^2 culture flask. After a cell density reached a culture solution was removed, and the cells were washed once with 7 mL of phosphate buffered saline (PBS) and digested with 3 mL of detachin. After the complete digestion, 7 mL of a culture solution was added for neutralization, the mixture was centrifuged, a supernatant was sucked away, and then 5 mL of the culture solution was added for resuspension so as to ensure that the cell density was 2-5×10^6/mL.
Forming processes of single-cell high-impedance sealing and whole-cell mode were both automatically completed by a Qpatch instrument. After a whole-cell recording mode was obtained, cells were clamped at −80 millivolts. Before a depolarization stimulation of +40 millivolt for 5 seconds was given, a preset voltage of −50 millivolts was firstly given for 50 milliseconds, then repolarization was performed to −50 millivolt and maintained for 5 seconds, and then the voltage returned to −80 millivolts. […] At least 3 cells (n≥3) were tested per concentration.
20 mM of a compound stock was diluted in DMSO, and 10 μL of 20 mM of the compound stock was added to 20 μL of a DMSO solution and triply serially diluted to 6 DMSO concentrations. […] Experimental data was analyzed by a GraphPad Prism 5.0 software.

`COc1cc(C(=O)NCCOCCOCCOCCOCCC(=O)N[C@@H](C(=O)N[C@@H](CCCNC(N)=O)C(=O)Nc2ccc(COC(=O)N3CCN(C(=O)O[C@H]4CC[C@@]5(C)[C@H](CC[C@@H]6[C@@H]5[C@H](O)C(=O)[C@]5(C)[C@@H](c7ccc(=O)oc7)CC[C@]65O)C4)CC3)cc2)C(C)C)ccc1NC(=O)[C@@H]1N[C@@H](CC(C)(C)C)[C@](C#N)(c2ccc(Cl)cc2F)[C@H]1c1cccc(Cl)c1F` [Compound I-1]: the “Proliferation inhibition activities IC50 on most tumor cell strains (in words)” value in assay [1] was “between several to hundreds of nanomoles”. Also, the IC50 at hERG potassium channel is above 40000 nM; in assay [2], 40 nM.
For `COc1cc(C(=O)O)ccc1NC(=O)[C@@H]1N[C@@H](CC(C)(C)C)[C@](C#N)(c2ccc(Cl)cc2F)[C@H]1c1cccc(Cl)c1F` [Idasanutlin, reference compound], the IC50 was above 10000 nM in assay [3], 1090 nM in assay [4] and 110 nM in assay [5].

(Values after US20240024494A1, “SMALL-MOLECULE CONJUGATE AND USE THEREOF” (SHANGHAI MEWSGEN BIOTECHNOLOGY CO., LTD, priority 2020, published 2024).)
